In patent publication US10597390B2, “Indoles for use in influenza virus infection” (Janssen Sciences Ireland UC, priority 2014, dated 2020) one finds CC50, IC50 and melting point data, which are given here for 28 molecules.

For one data set, the system named is MDCK cells. The note with it: dog, 3 days.
The test system of data set [1] is influenza virus A/Taiwan/1/86 (H1N1). Kind of data set: organism not typed. Type of data set: cell-based. The note with it: CPE in MDCK cells, three days post-virus exposure, ATPlite. (In general: ATP-based viability assays read luminescence as a measure of living cells.)
A short description of the next data set: in vitro. The following applies: dog, TOX MDCK CC50.

What is called CC50 is the concentration at which the toxic effect on the cells reaches its halfway point. Lower therefore signals greater toxicity to the cells. What is called IC50 is the concentration at which inhibition is half-maximal. Low values mean inhibition by little substance, high ones a need for much substance. In general, melting point refers to the temperature, or range, at which the solid turns liquid.

Each structure is given as a SMILES string.

Molecule `N#Cc1cc(F)c(N[C@H]2C3CCC(CC3)[C@@H]2C(=O)O)nc1-c1c[nH]c2c(F)cc(F)cc12` (mixture of isomers) [Compound 216] came in with a CC50 with MDCK cells of 70 nM. Further, in data set [1], half-maximal inhibition (IC50) required 2 nM.

For `O=C(N[C@@H]1CCC[C@H](Nc2nc(-c3c[nH]c4c(F)cc(Cl)cc34)ncc2F)C1)c1ccccn1` (racemic) [Compound 27], it took 9500 nM to reach half-maximal cytotoxicity in the data set on MDCK cells (CC50). 11 nM corresponded to half-maximal inhibition in data set [1] (IC50).

In the data set with MDCK cells, `Cc1cc(C(=O)N[C@@H]2CCC[C@H](Nc3nc(-c4c[nH]c5c(F)cc(F)cc45)ncc3F)C2)on1` (racemic) [Compound 91] showed a CC50 of 18600 nM. Besides, in data set [1], the half-inhibitory concentration (IC50) worked out at 21 nM.

As for `Cc1cc(C(=O)N[C@@H]2CCC[C@@H](Nc3nc(-c4c[nH]c5c(F)cc(F)cc45)c(C#N)cc3F)C2)on1` (racemic) [Compound 207], the melting point is 285 °C. The same molecule gave a 50% cytotoxic concentration (CC50) in the data set with MDCK cells of 8000 nM. In data set [1] (MDCK, 72 h), this molecule came in with an IC50 of 12 nM.

`Cc1cc(C(=O)N[C@@H]2CCC[C@H](Nc3nc(-c4c[nH]c5c(F)cc(Cl)cc45)ncc3F)C2)on1` [Compound 44] showed a melting point of 255.1 °C. Also, it took 3500 nM to reach half-maximal cytotoxicity in the data set with MDCK cells (CC50). The same molecule registered a half-maximal inhibitory concentration (IC50) in data set [1] of 15 nM.

For `Cc1cc(C(=O)N[C@@H]2CCC[C@H](Nc3nc(-c4c[nH]c5c(F)cc(F)cc45)ncc3F)C2)nn1C` [Compound 129], the melting point amounted to 158 °C. This molecule also displayed a CC50 in the data set on MDCK cells of 7500 nM. Also, in data set [1], half-maximal inhibition (IC50) was put at 8 nM.

As for `Cc1cc(C(=O)N[C@@H]2CCC[C@H](Nc3nc(-c4c[nH]c5c(F)cc(F)cc45)ncc3F)C2)on1` [Compound 133], the melting point came to 278.5 °C. In addition, the CC50 with MDCK cells is 7500 nM. In data set [1] (MDCK, 72 h), the IC50 was 13 nM.

As to `N#Cc1cc(F)c(N[C@@H]2CCC[C@H](NC(=O)N3CCCC3)C2)nc1-c1c[nH]c2c(F)cc(F)cc12` [Compound 163], in the data set with MDCK cells, half-maximal cytotoxicity (CC50) was put at 13200 nM. In data set [1], this molecule had an IC50 of 720 nM.

Take `Cn1ccc(C(=O)N[C@@H]2CCC[C@@H](Nc3nc(-c4c[nH]c5c(F)cc(F)cc45)c(C#N)cc3F)C2)n1` [Compound 206]: the CC50 in the data set on MDCK cells is > 25000 nM. This molecule yielded an IC50 in data set [1] of 3 nM.

As to `Cc1cc(C(=O)N[C@@H]2CCC[C@H](Nc3nc(-c4c[nH]c5c(F)cc(F)cc45)c(C#N)cc3F)C2)nn1C` [Compound 211], the melting point was 235 °C. In addition, the CC50 with MDCK cells is > 25000 nM. In data set [1], this molecule had a half-inhibitory concentration (IC50) of 4 nM.

`N#Cc1cc(F)c(N[C@H]2C3CCC(CC3)[C@@H]2C(=O)O)nc1-c1c[nH]c2c(F)cc(F)cc12` [Compound 215] displayed a CC50 in the data set with MDCK cells of 150 nM. Further, the IC50 in data set [1] was 0.8 nM.

`Cc1cc(C(=O)N[C@@H]2CCC[C@@H](Nc3nc(-c4c[nH]c5c(F)cc(F)cc45)c(C#N)cc3F)C2)on1` [Compound 220]: the 50% cytotoxic concentration (CC50) in the data set on MDCK cells is 3500 nM. For the same molecule, in data set [1], half-maximal inhibition (IC50) was put at 10 nM.

`Cc1cc(F)c2[nH]cc(-c3ncc(F)c(NC(CC(=O)O)C(C)(C)c4nccs4)n3)c2c1` (centres unmarked) [Compound 233] gave a melting point of 237.2 °C. The CC50 at 3 days in the data set “in vitro” came out at 17300 nM. The molecule also had an IC50 in data set [1] (MDCK, 72 h) of 15 nM.

With `Cc1cc(F)c2[nH]cc(-c3ncc(F)c(NC(CC(=O)O)C(C)(C)c4ccn(C)n4)n3)c2c1` (centres unmarked) [Compound 234], the melting point was determined as 208.5 °C. Further, the half-maximal cytotoxic concentration (CC50) at 3 days in the data set “in vitro” was > 25000 nM. This molecule came in with a 50% inhibitory concentration (IC50) in data set [1] (MDCK, 72 h) of 460 nM.

As for `Cc1cc(F)c2[nH]cc(-c3ncc(F)c(N[C@@H](CC(=O)O)C(C)(C)c4ccn(C)n4)n3)c2c1` [Compound 235], the melting point is > 260 °C. For the same molecule, in “in vitro”, the CC50 at 3 days was > 25000 nM. The molecule further yielded an IC50 in data set [1] (MDCK, 72 h) of 190 nM.

The molecule `Cn1ccc(C(C)(C)C(CC(=O)O)Nc2nc(-c3c[nH]c4c(F)cc(F)cc34)c(C#N)cc2F)n1` (centres unmarked) [Compound 236] came in with a melting point of 246.9 °C. The molecule further showed a CC50 at 3 days in the data set “in vitro” of 1500 nM. This molecule registered an IC50 in data set [1] (MDCK, 72 h) of 86 nM.

In turn, `CC(C)(c1ccccn1)C(CC(=O)O)Nc1nc(-c2c[nH]c3c(F)cc(F)cc23)c(C#N)cc1F` (centres unmarked) [Compound 237, 3-((5-cyano-6-(5,7-difluoro-1H-indol-3-yl)-3-fluoropyridin-2-yl)amino)-4-methyl-4-(pyridin-2-yl)pentanoic Acid] gave a melting point of 230.8 °C. Besides, in the data set “in vitro”, the CC50 at 3 days is 400 nM. In data set [1] (MDCK, 72 h), the IC50 was 3 nM.

Turning to `Cc1cc(F)c2[nH]cc(-c3ncc(F)c(N[C@@H](CC(=O)O)C(C)(C)c4ccccn4)n3)c2c1` [Compound 239], the melting point is 219 °C. The molecule further came in with a CC50 at 3 days in “in vitro” of 15300 nM. Also, in data set [1] (MDCK, 72 h), the IC50 stood at 10 nM.

Molecule `COC(C)(C)C(CC(=O)O)Nc1nc(-c2c[nH]c3c(F)cc(F)cc23)c(C#N)cc1F` (centres unmarked) [Compound 240, 3-((5-cyano-6-(5,7-difluoro-1H-indol-3-yl)-3-fluoropyridin-2-yl)amino)-4-methoxy-4-methylpentanoic Acid] had a melting point of 218.8 °C. In “in vitro”, this molecule registered a CC50 at 3 days of 900 nM. In data set [1] (MDCK, 72 h), the IC50 stood at 47 nM.

With `C=CCC(C)(C)C(CC(=O)O)Nc1nc(-c2c[nH]c3c(F)cc(F)cc23)c(C#N)cc1F` (centres unmarked) [Compound 241, 3-((5-cyano-6-(5,7-difluoro-1H-indol-3-yl)-3-fluoropyridin-2-yl)amino)-4,4-dimethylhept-6-enoic Acid], the melting point is > 260 °C. In the data set “in vitro”, this molecule yielded a CC50 at 3 days of 50 nM. The molecule further had an IC50 in data set [1] (MDCK, 72 h) of 12 nM.

For `C=CCC(C)(C)[C@@H](CC(=O)O)Nc1nc(-c2c[nH]c3c(F)cc(C)cc23)ncc1F` [Compound 243], the melting point was < 280 °C. In “in vitro”, this molecule gave a CC50 at 3 days of 600 nM. Also, the IC50 in data set [1] (MDCK, 72 h) is 46 nM.

`CC1(C(CC(=O)O)Nc2nc(-c3c[nH]c4c(F)cc(F)cc34)c(C#N)cc2F)CCCC1` (centres unmarked) [Compound 244, 3-((5-cyano-6-(5,7-difluoro-1H-indol-3-yl)-3-fluoropyridin-2-yl)amino)-3-(1-methylcyclopentyl)propanoic Acid] displayed a melting point of 150 °C. This molecule also returned a half-maximal cytotoxic concentration (CC50) at 3 days in “in vitro” of 60 nM. The IC50 in data set [1] (MDCK, 72 h) stood at 5 nM.

The molecule `CC1([C@@H](CC(=O)O)Nc2nc(-c3c[nH]c4c(F)cc(F)cc34)c(C#N)cc2F)CCCC1` [Compound 245] came in with a melting point of 289.6 °C. Further, in “in vitro”, the CC50 at 3 days is 700 nM. Besides, in data set [1] (MDCK, 72 h), the IC50 is 3 nM.

Molecule `CC1(C(CC(N)=O)Nc2nc(-c3c[nH]c4c(F)cc(F)cc34)c(C#N)cc2F)CCCC1` (centres unmarked) [Compound 246] showed a melting point of 270.1 °C. In the data set “in vitro”, this molecule returned a CC50 at 3 days of 6900 nM. Also, the IC50 in data set [1] (MDCK, 72 h) was found to be 610 nM.

In the case of `CC(=O)NCc1cc(F)c(N[C@@H]2CCC[C@H](NC(=O)N3CCCC3)C2)nc1-c1c[nH]c2c(F)cc(F)cc12` [Compound 248], the melting point is < 260 °C. Also, the CC50 at 3 days in the data set “in vitro” was > 25000 nM. In data set [1] (MDCK, 72 h), inhibition was half-maximal at 50 nM (IC50).

With `CN(C)C(=O)C(C)(C)C(CC(=O)O)Nc1nc(-c2c[nH]c3c(F)cc(F)cc23)ncc1F` (centres unmarked) [Compound 251], the melting point was determined as 253 °C. Also, the CC50 at 3 days in the data set “in vitro” is > 25000 nM. Moreover, the IC50 in data set [1] (MDCK, 72 h) was 150 nM.

On to `CC1(C(CC(=O)O)Nc2nc(-c3c[nH]c4c(F)cc(F)cc34)c(C#N)cc2F)CCOCC1` (centres unmarked) [Compound 255, 3-((5-cyano-6-(5,7-difluoro-1H-indol-3-yl)-3-fluoropyridin-2-yl)amino)-3-(4-methyltetrahydro-2H-pyran-4-yl)propanoic Acid], for which the melting point stood at 151.1 °C. Moreover, in the data set “in vitro”, it took 5300 nM to reach half-maximal cytotoxicity (CC50 at 3 days). Half-maximal inhibition in data set [1] (MDCK, 72 h) (IC50) was put at 170 nM.

Regarding `CC(=O)NCc1cc(F)c(N[C@H]2CCC[C@@H](NC(=O)c3cn(C)cn3)C2)nc1-c1c[nH]c2c(F)cc(F)cc12` [Compound 259], the melting point is > 260 °C. The CC50 in the data set on MDCK cells was > 25000 nM. Besides, in data set [1], the midpoint of inhibition, the IC50, lay at 170 nM.
